The results in this text go back to patent US20150080438A1, “6,7-Dihydro-5H-benzo[7]annulene derivatives, processes for their preparation, pharmaceutical products comprising them and their use for preparing medicaments” (Bayer Intellectual Property GmbH, priority 2011, published 2015).

For this experiment, the target named is T1, oestrogen receptor (ER) (Homo sapiens, UniProt P03372).
T1 construct: These MVLN cells express, along with the functional oestrogen receptor (ER), a reporter construct; endogenous in cells; host or cells: MVLN cells (MCF7 derivative with ER-responsive luciferase reporter)
T1 sequence (P03372 1-595): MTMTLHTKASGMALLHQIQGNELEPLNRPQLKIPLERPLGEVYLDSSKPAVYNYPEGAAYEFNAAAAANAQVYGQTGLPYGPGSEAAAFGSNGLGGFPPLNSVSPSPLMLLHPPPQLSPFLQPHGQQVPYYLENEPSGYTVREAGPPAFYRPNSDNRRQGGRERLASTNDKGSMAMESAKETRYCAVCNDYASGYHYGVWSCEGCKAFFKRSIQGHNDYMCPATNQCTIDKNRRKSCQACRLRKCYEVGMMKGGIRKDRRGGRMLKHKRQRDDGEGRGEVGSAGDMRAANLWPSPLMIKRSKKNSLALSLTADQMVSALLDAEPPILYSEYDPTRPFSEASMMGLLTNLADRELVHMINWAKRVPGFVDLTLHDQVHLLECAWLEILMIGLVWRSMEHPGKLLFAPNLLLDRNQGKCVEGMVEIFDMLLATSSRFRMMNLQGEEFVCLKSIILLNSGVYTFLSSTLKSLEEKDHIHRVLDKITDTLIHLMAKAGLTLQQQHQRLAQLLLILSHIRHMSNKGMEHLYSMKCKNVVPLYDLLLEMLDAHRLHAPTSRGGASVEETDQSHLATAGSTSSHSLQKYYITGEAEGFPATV
As to the kind of experiment: Anti-oestrogenic action in MVLN cells (inhibition of estradiol-induced luciferase, transactivation antagonism). The format is cell-based. To be noted: inhibition of estradiol-induced luciferase activity, read-out: Anti-oestrogenic action in vitro: MVLN transactivation antagonism IC50. From the text:
The anti-oestrogenic action of the claimed pharmacological compounds was investigated in so-called MVLN cells in vitro. MVLN cells are derivatives of the hormone-responsive MCF7 breast cancer cells known by a person skilled in the art. These MVLN cells express, along with the functional oestrogen receptor (ER), a reporter construct, which under ER-activation expresses luciferase. Determination of the activity of the induced luciferase permits a direct conclusion on the oestrogen properties of substances. To investigate the anti-oestrogenic properties of the pharmacological compounds, they were investigated in the presence of oestrogen for their potential for inhibiting the luciferase signal induced by estradiol.
The claimed pharmacological test substances were investigated in MVLN cells for their anti-oestrogenic potential, as described (see Table 2).

With `COCCN(CCCCCCC1=C(c2ccc(F)c(O)c2)CCCc2cc(O)c(F)cc21)CCC[S+]([O-])CCCC(F)(F)C(F)(F)F` (racemic) [Example 131, 2-Fluoro-8-(4-fluoro-3-hydroxyphenyl)-9-{6-[(2-methoxyethyl){3-[(RS)-(4,4,5,5,5-pentafluoropentyl)sulphinyl]propyl}amino]hexyl}-6,7-dihydro-5H-benzo[7]annulen-3-ol], the IC50 is 2 nM.
As for `COCCCN(CCCCCCC1=C(c2ccc(F)c(O)c2)CCCc2cc(O)c(F)cc21)CCC[S+]([O-])CCCC(F)(F)C(F)(F)F` (racemic) [Example 132, 2-Fluoro-8-(4-fluoro-3-hydroxyphenyl)-9-{6-[(3-methoxypropyl){3-[(RS)-(4,4,5,5,5-pentafluoropentyl)sulphinyl]propyl}amino]hexyl}-6,7-dihydro-5H-benzo[7]annulen-3-ol], the IC50 was 5 nM.
Turning to `CN(CCCCCC1=C(c2cccc(O)c2)CCCc2cc(O)ccc21)CCCS(=O)(=O)CCCC(F)(F)C(F)(F)F` [Example 5, 8-(3-Hydroxyphenyl)-9-[5-(methyl{3-[(4,4,5,5,5-pentafluoropentyl)sulphonyl]propyl}amino)pentyl]-6,7-dihydro-5H-benzo[7]annulen-3-ol], the IC50 came to 5 nM.
For the compound `CN(CCCCCC1=C(c2cccc(O)c2)CCCc2cc(O)ccc21)CCCCCS(=O)(=O)CCCC(F)(F)C(F)(F)F` [Example 9, 8-(3-Hydroxyphenyl)-9-[5-(methyl{5-[(4,4,5,5,5-pentafluoropentyl)sulphonyl]pentyl}amino)pentyl]-6,7-dihydro-5H-benzo[7]annulen-3-ol], the IC50 amounted to 8 nM.
As to `CN(CCCCCCS(=O)(=O)CCCC(F)(F)C(F)(F)F)CCCCCC1=C(c2cccc(O)c2)CCCc2cc(O)ccc21` [Example 11, 8-(3-Hydroxyphenyl)-9-[5-(methyl{6-[(4,4,5,5,5-pentafluoropentyl)sulphonyl]hexyl}amino)pentyl]-6,7-dihydro-5H-benzo[7]annulen-3-ol], the IC50 worked out at 4 nM.
On to `CN(CCCCCCC1=C(c2cccc(O)c2)CCCc2cc(O)ccc21)CCCCS(=O)(=O)CCCC(F)(F)C(F)(F)F` [Example 15, 8-(3-Hydroxyphenyl)-9-[6-(methyl{4-[(4,4,5,5,5-pentafluoropentyl)sulphonyl]butyl}amino)hexyl]-6,7-dihydro-5H-benzo[7]annulen-3-ol], for which the IC50 was 3 nM.
For the compound `CN(CCCCCCC1=C(c2cccc(O)c2)CCCc2cc(O)ccc21)CCCCCS(=O)(=O)CCCC(F)(F)C(F)(F)F` [Example 17, 8-(3-Hydroxyphenyl)-9-[6-(methyl{5-[(4,4,5,5,5-pentafluoropentyl)sulphonyl]pentyl}amino)hexyl]-6,7-dihydro-5H-benzo[7]annulen-3-ol], the IC50 amounted to 4 nM.
With `CN(CCCCCCC1=C(c2ccc(C#N)cc2)CCCc2cc(O)ccc21)CCCS(=O)(=O)CCCC(F)(F)C(F)(F)F` [Example 22, 4-{3-Hydroxy-9-[6-(methyl{3-[(4,4,5,5,5-pentafluoropentyl)sulphonyl]propyl}amino)hexyl]-6,7-dihydro-5H-benzo[7]annulen-8-yl}benzonitrile], the IC50 turned out to be 17 nM.
For the compound `CN(CCCCCC1=C(c2ccc(F)c(O)c2)CCCc2cc(O)ccc21)CCCCS(=O)(=O)CCCC(F)(F)C(F)(F)F` [Example 25, 8-(4-Fluoro-3-hydroxyphenyl)-9-[5-(methyl{4-[(4,4,5,5,5-pentafluoropentyl)sulphonyl]butyl}amino)pentyl]-6,7-dihydro-5H-benzo[7]annulen-3-ol], the IC50 was 24 nM.
As for `CN(CCCCCCC1=C(c2ccc(F)c(O)c2)CCCc2cc(O)ccc21)CCCCS(=O)(=O)CCCC(F)(F)C(F)(F)F` [Example 31, 8-(4-Fluoro-3-hydroxyphenyl)-9-[6-(methyl{4-[(4,4,5,5,5-pentafluoropentyl)sulphonyl]butyl}amino)hexyl]-6,7-dihydro-5H-benzo[7]annulen-3-ol], the IC50 came to 3 nM.
Take `CN(CCCCCCC1=C(c2ccc(F)c(O)c2)CCCc2cc(O)ccc21)CCCCCS(=O)(=O)CCCC(F)(F)C(F)(F)F` [Example 33, 8-(4-Fluoro-3-hydroxyphenyl)-9-[6-(methyl{5-[(4,4,5,5,5-pentafluoropentyl)sulphonyl]pentyl}amino)hexyl]-6,7-dihydro-5H-benzo[7]annulen-3-ol]: the IC50 came out at 6 nM.
The result for `CN(CCCCCCC1=C(c2ccc(F)c(O)c2)CCCc2cc(O)ccc21)CCCCCCS(=O)(=O)CCCC(F)(F)C(F)(F)F` [Example 35, 8-(4-Fluoro-3-hydroxyphenyl)-9-[6-(methyl{6-[(4,4,5,5,5-pentafluoropentyl)sulphonyl]hexyl}amino)hexyl]-6,7-dihydro-5H-benzo[7]annulen-3-ol] reads 11 nM; that for `CN(CCCCCC1=C(c2ccc(O)c(F)c2)CCCc2cc(O)ccc21)CCCSCCCC(F)(F)C(F)(F)F` [Example 36, 8-(3-Fluoro-4-hydroxyphenyl)-9-[5-(methyl{3-[(4,4,5,5,5-pentafluoropentyl)sulphanyl]propyl}amino)pentyl]-6,7-dihydro-5H-benzo[7]annulen-3-ol], 3 nM.
`CN(CCCCCC1=C(c2cccnc2)CCCc2cc(O)ccc21)CCCSCCCC(F)(F)C(F)(F)F` [Example 39, 9-[5-(Methyl{3-[(4,4,5,5,5-pentafluoropentyl)sulphanyl]propyl}amino)pentyl]-8-(3-pyridyl)-6,7-dihydro-5H-benzo[7]annulen-3-ol]: the IC50 came to 146 nM.
The value for `CN(CCCCCC1=C(c2cccnc2)CCCc2cc(O)ccc21)CCCS(=O)(=O)CCCC(F)(F)C(F)(F)F` [Example 41, 9-[5-(Methyl{3-[(4,4,5,5,5-pentafluoropentyl)sulphonyl]propyl}amino)pentyl]-8-(3-pyridyl)-6,7-dihydro-5H-benzo[7]annulen-3-ol] was 110 nM; that for `CN(CCCCCCC1=C(c2cccnc2)CCCc2cc(O)ccc21)CCCSCCCC(F)(F)C(F)(F)F` [Example 42, 9-[6-(Methyl{3-[(4,4,5,5,5-pentafluoropentyl)sulphanyl]propyl}amino)hexyl]-8-(3-pyridyl)-6,7-dihydro-5H-benzo[7]annulen-3-ol] was 7 nM; that for `CN(CCCCCC1=C(c2ccc(S(C)(=O)=O)cc2)CCCc2cc(O)ccc21)CCCSCCCC(F)(F)C(F)(F)F` [Example 45, 8-(4-Mesylphenyl)-9-[5-(methyl{3-[(4,4,5,5,5-pentafluoropentyl)sulphanyl]propyl}amino)pentyl]-6,7-dihydro-5H-benzo[7]annulen-3-ol] was 65 nM.
Turning to `CN(CCCCCC1=C(c2ccc(S(C)(=O)=O)cc2)CCCc2cc(O)ccc21)CCCS(=O)(=O)CCCC(F)(F)C(F)(F)F` [Example 47, 8-(4-Mesylphenyl)-9-[5-(methyl{3-[(4,4,5,5,5-pentafluoropentyl)sulphonyl]propyl}amino)pentyl]-6,7-dihydro-5H-benzo[7]annulen-3-ol], the IC50 was determined as 34 nM.
The result for `CN(CCCCCCC1=C(c2cccc(O)c2)CCCc2cc(O)ccc21)CCCCS(=O)(=O)CCCC(F)(F)F` [Example 52, 8-(3-Hydroxyphenyl)-9-[6-(methyl{4-[(4,4,4-trifluorobutyl)sulphonyl]butyl}amino)hexyl]-6,7-dihydro-5H-benzo[7]annulen-3-ol] reads 1 nM.
The result for `CN(CCCCCCC1=C(c2cccc(O)c2)CCCc2cc(O)ccc21)CCCS(=O)(=O)CCC(F)(F)C(F)(F)F` [Example 54, 8-(3-Hydroxyphenyl)-9-[6-(methyl{3-[(3,3,4,4,4-pentafluorobutyl)sulphonyl]propyl}amino)hexyl]-6,7-dihydro-5H-benzo[7]annulen-3-ol] reads 2 nM; that for `CN(CCCCCCC1=C(c2ccccc2)CCCc2cc(O)ccc21)CCCS(=O)(=O)CCCC(F)(F)F` [Example 57, 9-[6-(Methyl{3-[(4,4,4-trifluorobutyl)sulphonyl]propyl}amino)hexyl]-8-phenyl-6,7-dihydro-5H-benzo[7]annulen-3-ol], 5 nM.
The value for `CN(CCCCCCC1=C(c2ccccc2)CCCc2cc(O)ccc21)CCCS(=O)(=O)CCC(F)(F)F` [Example 60, 9-[6-(Methyl{3-[(3,3,3-trifluoropropyl)sulphonyl]propyl}amino)hexyl]-8-phenyl-6,7-dihydro-5H-benzo[7]annulen-3-ol] was 26 nM; that for `CN(CCCCCCC1=C(c2ccccc2)CCCc2cc(O)ccc21)CCCS(=O)(=O)CCC(F)(F)C(F)(F)F` [Example 62, 9-[6-(Methyl{3-[(3,3,4,4,4-pentafluorobutyl)sulphonyl]propyl}amino)hexyl]-8-phenyl-6,7-dihydro-5H-benzo[7]annulen-3-ol] was 12 nM.

The IC50 is the concentration that gives 50% inhibition.
